Here are results for 26 compounds from patent US12180192B2, “Modulators of THR-β and methods of use thereof” (ALIGOS THERAPEUTICS, INC., priority 2019, dated 2024).

SMILES strings stand for the structures. Like-named read-outs stand apart in the source and are kept apart here. Some results are limits rather than exact numbers.

Test [1] concerns the target T1, human thyroid receptor beta ligand-binding domain (LBD) (Homo sapiens, UniProt P10828).
T1 construct: purchased Invitrogen
T1 sequence (P10828 217-461 limits assumed): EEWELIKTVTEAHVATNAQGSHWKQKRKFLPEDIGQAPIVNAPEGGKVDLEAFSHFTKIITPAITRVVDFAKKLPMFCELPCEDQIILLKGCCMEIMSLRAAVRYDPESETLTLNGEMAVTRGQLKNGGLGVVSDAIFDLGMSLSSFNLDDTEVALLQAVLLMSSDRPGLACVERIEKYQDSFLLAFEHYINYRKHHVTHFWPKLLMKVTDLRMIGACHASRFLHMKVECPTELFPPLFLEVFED
Nature of the test: TR-FRET thyroid receptor beta coactivator assay (THR biochemical assay, Assay 1). The conditions noted are these: for EC50: THR-beta, TR-FRET coactivator assay, read-out: Activity category Assay 1 (EC50, THR-beta agonist); for Emax: read-out: Activity category Assay 1 THRβ (Emax). An excerpt: (§1) The TR-FRET thyroid receptor beta coactivator assay was used with slight, optimized modifications of the manufacturer's protocol (Invitrogen). The assay uses a terbium-labeled anti-GST antibody, a glutathione-S-transferase (GST) tagged human thyroid receptor, beta or alpha, ligand-binding domain (LBD), and a fluorescein labeled SRC2-2 coactivator peptide. […] The energy transfer is detected as an increase in the fluorescence emission of the fluorescein acceptor, and a decrease in the fluorescence emission of the terbium donor. The assay is performed in a 384-well black plate in a final volume of 20 μL. Serial dilution of various test agonists was performed in DMSO (1% final DMSO concentration) and added to the test plate. Thyroid receptor beta LBD is added to the plate at a final concentration of 1 nM, followed by the mixture of the fluorescein labeled SRC2-2 coactivator peptide, and the terbium-labeled anti-GST antibody at final concentrations of 200 nM and 2 nM respectively. The assay is incubated for 1 hr at rt protected from light.
In general terms: TR-FRET usually uses a lanthanide donor and a delayed reading to cut background.

For test [2], the target named is T2, human thyroid receptor alpha ligand-binding domain (LBD) (Homo sapiens, UniProt P10827).
T2 construct: purchased Invitrogen
Nature of the test: TR-FRET thyroid receptor alpha coactivator assay (THR biochemical assay, Assay 1). The conditions noted are these: for EC50: Table 4, THR-alpha, read-out: Activity category Assay 1 (EC50, THR-alpha agonist activity); for Emax: read-out: Activity category Assay 1 THRα (Emax).
Source text: as §1

T2 sequence (P10827 163-410 isoform P10827-2 limits assumed, other chains not shown): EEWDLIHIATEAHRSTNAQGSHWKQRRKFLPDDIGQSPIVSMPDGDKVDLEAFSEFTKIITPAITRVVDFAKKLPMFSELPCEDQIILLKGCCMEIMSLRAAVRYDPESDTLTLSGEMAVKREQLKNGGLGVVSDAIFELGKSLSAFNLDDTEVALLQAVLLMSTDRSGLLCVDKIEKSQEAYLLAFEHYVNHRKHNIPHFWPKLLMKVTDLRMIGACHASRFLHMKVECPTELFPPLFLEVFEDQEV

On to `Cc1cc(-c2cc(=O)[nH]nc2Oc2c(Cl)cc(-n3ncc(=O)[nH]c3=O)cc2Cl)ccn1` [Compound 142], for which the EC50 in test [1] and in test [2] was over 25 µM each time. Further, the Emax – broadly, the maximal effect, on the per cent scale that the assay sets – in test [1] (Table 5, Assay 1, THRβ) was under 50%; in test [2] (Table 5, THRα) it was under 50%.
Take `Cc1cccc(-c2cc(=O)[nH]nc2Oc2c(Cl)cc(-n3nc(N)c(=O)[nH]c3=O)cc2Cl)c1` [Compound 70-A, 6-amino-2-(3,5-dichloro-4-((6-oxo-4-(m-tolyl)-1,6-dihydropyridazin-3-yl)oxy)phenyl)-1,2,4-triazine-3,5(2H,4H)-dione]: the EC50 in test [1] and in test [2] was over 25 µM throughout. Moreover, the Emax in test [1] (Table 5, Assay 1, THRβ) was under 50%; in test [2] (Table 5, THRα), under 50%.
On to `Nc1nn(-c2cc(Cl)c(Oc3n[nH]c(=O)cc3-c3ccc4nnccc4c3)c(Cl)c2)c(=O)[nH]c1=O` [Compound 109], for which the concentration for a half-maximal effect (EC50) in test [1] and in test [2] was over 25 µM each time. Besides, the Emax in test [1] (Table 5, Assay 1, THRβ) is under 50%; in test [2] (Table 5, THRα), under 50%.
On to `Cc1cncc(-c2cc(=O)[nH]nc2Oc2c(Cl)cc(-n3ncc(=O)[nH]c3=O)cc2Cl)c1` [Compound 138], for which the EC50 in test [1] and in test [2] was over 25 µM throughout. In addition, the Emax is under 50% in test [1] (Table 5, Assay 1, THRβ) and under 50% in test [2] (Table 5, THRα).
`Nc1nn(-c2cc(Cl)c(Oc3n[nH]c(=O)cc3-c3cc4ccccn4n3)c(Cl)c2)c(=O)[nH]c1=O` [Compound 131]: the EC50 in test [1] and in test [2] was 1 to 25 µM in each case. For the same compound, the Emax in test [1] (Table 5, Assay 1, THRβ) was under 50%; in test [2] (Table 5, THRα) it was under 50%.
For `CC(C)[C@H](C)c1cc(Oc2c(Cl)cc(-n3nc(N)c(=O)[nH]c3=O)cc2Cl)n[nH]c1=O` [Compound 170], the EC50 (usually the concentration that produces a half-maximal response) in test [1] was 0.05 to 0.25 µM; in test [2] it was over 25 µM. Also, the Emax was under 50% in test [1] (Table 5, Assay 1, THRβ) and under 50% in test [2] (Table 5, THRα).
Take `Cc1cccc(-c2cc(=O)[nH]nc2Oc2c(Cl)cc(-n3ncc(=O)[nH]c3=O)cc2Cl)c1` [Compound 140]: the EC50 in test [1] and in test [2] was over 25 µM throughout. Moreover, the Emax was under 50% in test [1] (Table 5, Assay 1, THRβ) and under 50% in test [2] (Table 5, THRα).
On to `Nc1nn(-c2cc(Cl)c(Oc3cc(-c4cc5ccccn5n4)c(=O)[nH]n3)c(Cl)c2)c(=O)[nH]c1=O` [Compound 130], for which the EC50 is over 25 µM in test [1] and 1 to 25 µM in test [2]. The Emax in test [1] (Table 5, Assay 1, THRβ) was under 50%; in test [2] (Table 5, THRα), under 50%.
`O=c1cc(-c2ccc3sccc3c2)c(Oc2c(Cl)cc(-n3ncc(=O)[nH]c3=O)cc2Cl)n[nH]1` [Compound 136]: the EC50 in test [1] and in test [2] was 1 to 25 µM in each case. Also, the Emax in test [1] (Table 5, Assay 1, THRβ) was under 50%; in test [2] (Table 5, THRα) it was under 50%.
As for `Nc1nn(-c2cc(Cl)c(Oc3n[nH]c(=O)cc3-c3ccn4cncc4c3)c(Cl)c2)c(=O)[nH]c1=O` [Compound 127], the EC50 in test [1] and in test [2] was over 25 µM throughout. Moreover, the Emax in test [1] (Table 5, Assay 1, THRβ) was under 50%; in test [2] (Table 5, THRα) it was under 50%.
As for `CC(C)[C@@H](C)c1cc(Oc2c(Cl)cc(-n3nc(N)c(=O)[nH]c3=O)cc2Cl)n[nH]c1=O` [Compound 169], the EC50 in test [1] was under 0.05 µM; in test [2], 0.25 to 1 µM. For the same compound, the Emax is under 50% in test [1] (Table 5, Assay 1, THRβ) and under 50% in test [2] (Table 5, THRα).
`Nc1nn(-c2cc(Cl)c(Oc3cc(-c4ccn5cncc5c4)c(=O)[nH]n3)c(Cl)c2)c(=O)[nH]c1=O` [Compound 126]: the EC50 in test [1] and in test [2] was over 25 µM in each case. For the same compound, the Emax in test [1] (Table 5, Assay 1, THRβ) was under 50%; in test [2] (Table 5, THRα), under 50%.
In the case of `Nc1nn(-c2cc(Cl)c(Oc3cc(-c4cnc5ccccc5c4)c(=O)[nH]n3)c(Cl)c2)c(=O)[nH]c1=O` [Compound 132], the EC50 in test [1] and in test [2] was over 25 µM throughout. The Emax in test [1] (Table 5, Assay 1, THRβ) was under 50%; in test [2] (Table 5, THRα), under 50%.
With `Nc1nn(-c2cc(Cl)c(Oc3n[nH]c(=O)cc3-c3cccc(Cl)c3)c(Cl)c2)c(=O)[nH]c1=O` [Compound 68-A, 6-amino-2-(3,5-dichloro-4-((4-(3-chlorophenyl)-6-oxo-1,6-dihydropyridazin-3-yl)oxy)phenyl)-1,2,4-triazine-3,5(2H,4H)-dione], the EC50 in test [1] and in test [2] was over 25 µM throughout. The Emax in test [1] (Table 5, Assay 1, THRβ) was under 50%; in test [2] (Table 5, THRα), under 50%.
For `O=c1cnn(-c2cc(Cl)c(Oc3cc(-c4ccc5sccc5c4)c(=O)[nH]n3)c(Cl)c2)c(=O)[nH]1` [Compound 135], the EC50 in test [1] and in test [2] was over 25 µM each time. Moreover, the Emax was under 50% in test [1] (Table 5, Assay 1, THRβ) and under 50% in test [2] (Table 5, THRα).
For `Nc1nn(-c2cc(Cl)c(Oc3cc(C4Cc5ccccc54)c(=O)[nH]n3)c(Cl)c2)c(=O)[nH]c1=O` (single isomer, unassigned) [Compound 166, 6-amino-2-(4-((5-(bicyclo[4.2.0]octa-1(6),2,4-trien-7-yl)-6-oxo-1,6-dihydropyridazin-3-yl)oxy)-3,5-dichlorophenyl)-1,2,4-triazine-3,5(2H,4H)-dione], the results for the EC50 in test [1] and in test [2] were 0.05 to 0.25 µM and over 25 µM, respectively. Besides, the “Activity category Assay 1 THRβ (Emax)” value in test [1] (Table 5, Assay 1, THRβ) is on record as “C (Emax<50%)”. In test [2] (Table 5, THRα), the “Activity category Assay 1 THRα (Emax)” value is on record as “C (Emax<50%)”.
Turning to `CC(c1ccccc1)c1cc(Oc2c(Cl)cc(-n3nc(N)c(=O)[nH]c3=O)cc2Cl)n[nH]c1=O` (single isomer, unassigned) [Compound 163, 6-Amino-2-(3,5-dichloro-4-((6-oxo-5-(1-phenylethyl)-1,6-dihydropyridazin-3-yl)oxy)phenyl)-1,2,4-triazine-3,5(2H,4H)-dione], the EC50 in test [1] and in test [2] was over 25 µM in each case. Moreover, the Emax in test [1] (Table 5, Assay 1, THRβ) is under 50%; in test [2] (Table 5, THRα) it was under 50%.
As to `N#Cc1nn(-c2cc(Cl)c(Oc3ccc4[nH]cc(-c5ccccc5)c4c3)c(Cl)c2)c(=O)[nH]c1=O` [Compound 7, 2-[3,5-dichloro-4-[(3-phenyl-1H-indol-5-yl)oxy]phenyl]-3,5-dioxo-4H-1,2,4-triazine-6-carbonitrile], the EC50 in test [1] and in test [2] was over 25 µM in each case. The Emax in test [1] was under 50%; in test [2] (Table 5, THRα) it was under 50%.
Consider `CC(C)c1cc(Oc2c(Cl)cc(-n3nc(C#N)c(=O)[nH]c3=O)c3c2CC3)n[nH]c1=O` [Compound 78, 2-[4-Chloro-5-[(5-isopropyl-6-oxo-1H-pyridazin-3-yl)oxy]bicyclo[4.2.0]octa-1(6),2,4-trien-2-yl]-3,5-dioxo-4H-1,2,4-triazine-6-carbonitrile], for which the EC50 in test [1] lay within 0.25 to 1 µM; in test [2], 1 to 25 µM. The Emax was under 50% in test [1] (Table 5, Assay 1, THRβ) and under 50% in test [2] (Table 5, THRα).
Consider `Nc1nn(-c2cc(Cl)c(Oc3n[nH]c(=O)cc3-c3cnc4ccccc4c3)c(Cl)c2)c(=O)[nH]c1=O` [Compound 133], for which the EC50 is 0.25 to 1 µM in test [1] and over 25 µM in test [2]. Besides, the Emax in test [1] (Table 5, Assay 1, THRβ) was under 50%; in test [2] (Table 5, THRα), under 50%.
With `Nc1nn(-c2cc(Cl)c(Oc3n[nH]c(=O)cc3-c3ccc4ccnnc4c3)c(Cl)c2)c(=O)[nH]c1=O` [Compound 111], the EC50 in test [1] and in test [2] was over 25 µM throughout. Also, the Emax was under 50% in test [1] (Table 5, Assay 1, THRβ) and under 50% in test [2] (Table 5, THRα).
Turning to `C[C@@H](c1cc(Oc2c(Cl)cc(-n3nc(N)c(=O)[nH]c3=O)cc2Cl)n[nH]c1=O)C1CCC1` [Compound 167], the EC50 in test [1] is 0.05 to 0.25 µM; in test [2] it was 1 to 25 µM. Further, the Emax was under 50% in test [1] (Table 5, Assay 1, THRβ) and under 50% in test [2] (Table 5, THRα).
Regarding `Nc1nn(-c2cc(Cl)c(Oc3n[nH]c(=O)cc3-c3cccc(F)c3)c(Cl)c2)c(=O)[nH]c1=O` [Compound 69-A, 6-amino-2-(3,5-dichloro-4-((4-(3-fluorophenyl)-6-oxo-1,6-dihydropyridazin-3-yl)oxy)phenyl)-1,2,4-triazine-3,5(2H,4H)-dione], the EC50 in test [1] and in test [2] was over 25 µM each time. Moreover, the Emax is under 50% in test [1] (Table 5, Assay 1, THRβ) and under 50% in test [2] (Table 5, THRα).
`N#Cc1nn(-c2cc(Cl)c(Oc3ccc4[nH]cc(C(=O)N5CCc6ccccc6C5)c4c3)c(Cl)c2)c(=O)[nH]c1=O` [Compound 22]: the EC50 in test [1] and in test [2] was over 25 µM each time. Also, the Emax in test [1] (Table 5, Assay 1, THRβ) was under 50%; in test [2] (Table 5, THRα), under 50%.
On to `Cc1cc(-c2nn(C)c(=O)[nH]c2=O)cc(C)c1Cc1ccc2[nH]cc(C(C)C)c2n1` [Compound 162, 6-[4-[(3-isopropyl-1H-pyrrolo[3,2-b]pyridin-5-yl)methyl]-3,5-dimethyl-phenyl]-2-methyl-1,2,4-triazine-3,5-dione], for which the values for the EC50 in test [1] and in test [2] were under 0.05 µM and 0.05 to 0.25 µM, respectively. Besides, the Emax in test [1] (Table 5, Assay 1, THRβ) is 50 to 75%; in test [2] (Table 5, THRα), under 50%.
The corresponding values for `Nc1nn(-c2cc(Cl)c(Oc3cc(-c4ccc5ccnnc5c4)c(=O)[nH]n3)c(Cl)c2)c(=O)[nH]c1=O` [Compound 110] are over 25 µM, over 25 µM, under 50% and under 50%.
